# Key:
# [1] = system: ΔK280 TauRD-DsRed SH-SY5Y cells; assay: High-content neurite outgrowth analysis (TUBB3 stain); assay type: cell-based, human; settings: 10 μM
# Protocol: (§1) ΔK280 TauRD-DsRed SH-SY5Y cells were plated in the presence of 10 μM retinoid acid (RA; Sigma-Aldrich) to promote neuronal differentiation. The next day, cells were added with congo red or ZN/VB compounds (2–10 μM) for 8 h pretreatment, followed by inducing ΔK280 TauRD-DsRed expression with doxycycline (2 μg/mL). On day 8, cell nuclei were stained with Hoechst 33342 (0.1 μg/mL; Thermo Scientific), and cell images acquired using ImageXpress Micro Confocal High-Content Imaging System (Molecular Devices, San Jose, CA, USA) with DAPI (4′,6-diamidino-2-phenylindole, for nuclei) and TRITC (tetramethylrhodamine, for DsRed) fluorescence filter sets. To detect ROS changes, 10 μM compound-treated cells were stained with Hoechst 33342 and 2′,7′-dichlorodihydrofluorescein diacetate (H2DCFDA, 10 μM) fluorescein (Invitrogen, Carlsbad, CA, USA), and cell images captured using DAPI and FITC (fluorescein isothiocyanate, for DCF) filters. For assessing differential neurite outgrowth, 10 μM compound-treated cells were fixed (paraformaldehyde, 4%), permeabilized (Triton X-100, 0.3%), and stained with class III β-tubulin (TUBB3, 1:1000) primary antibody (#802001, BioLegend, San Diego, CA, USA), followed by donkey anti-rabbit Alexa Fluor® 555 secondary antibody (1:1000; #A-31572, Invitrogen) and DAPI (0.1 μg/mL; Sigma-Aldrich) stains. The nuclei and neurite images were acquired with DAPI and TRITC fluorescence filters, respectively. All analyses of images were performed using MetaXpress software (Molecular Device).
# [2] = Cell number / cell survival in induced ΔK280 TauRD-DsRed SH-SY5Y cells (high-content); assay type: cell-based, human; settings: human; induced SH-SY5Y cells expressing ΔK280 TauRD-DsRed for 6 days, 2–10 μM tested; read-out: IC50 cytotoxicity based on cell number
# Protocol: as §1
# [3] = biological target: T1, E. coli-expressed ΔK280 TauRD protein (Homo sapiens, UniProt P10636, DEL597-597); assay: Thioflavin T fluorescence ΔK280 TauRD aggregation assay; assay type: biochemical; settings: TauRD protein 20 μM, 48 h at 37 °C; read-out: EC50 inhibiting ΔK280 TauRD aggregation
# T1 construct: TauRD (Q^244-E^372 of Tau, NP_005901) aggregation; N-terminal Met (N); made in house; host or cells: E. coli
# Protocol: The anti-aggregation activity of congo red (positive control) and ZN/VB compounds (5–20 μM) was assessed using E. coli-expressed ΔK280 TauRD protein [33] and thioflavin T (Sigma-Aldrich) fluorescence assay. The trend of ΔK280 TauRD amyloid aggregate formation depicted with enhanced and red-shifted fluorescence was recorded by a FLx800 microplate fluorescence reader (BioTek Instruments), where the procedure was previously reported in detail.
# [4] = MTT cell viability assay; assay type: cell-based; settings: human
# Protocol: Human neuroblastoma SH-SY5Y cells with inducible ΔK280 TauRD-DsRed expression were maintained in DMEM/F-12 supplemented with fetal bovine serum (FBS, 10%) (Thermo Scientific, Waltham, MA, USA), penicillin/streptomycin (100 U/mL), selection antibiotics hygromycin (100 μg/mL) and blasticidin (5 μg/mL) (InvivoGen, San Diego, CA, USA), and 1.5 g/l sodium bicarbonate. Cells were cultured at 37 °C in a 5% CO2 atmosphere. The cell viability of ZN and VB compounds (concentration range: 0.1–100 μM) was evaluated by a 3-(4,5-dimethylthiazol-2-yl)-2,5-diphenyltetrazolium bromide (MTT; Sigma-Aldrich) colorimetric assay. The absorbance at 570 nm was recorded by a Multiskan™ GO Microplate Spectrophotometer (Thermo Scientific).
# T1 sequence (P10636 with tags, fused parts or gaps isoform P10636-8 DEL280-280): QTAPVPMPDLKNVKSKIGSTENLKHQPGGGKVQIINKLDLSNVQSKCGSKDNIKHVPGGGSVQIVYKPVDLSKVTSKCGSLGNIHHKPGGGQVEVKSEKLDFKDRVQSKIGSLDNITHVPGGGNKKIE
smiles,measurement,setting,value
"O=C(/C=C/c1ccccc1O)c1c(O)c2ccccc2oc1=O [ZN-015, (E)-4-hydroxy-3-(3-(2-hydroxyphenyl)acryloyl)-2H-chromen-2-one]",neurite branch,[1]; induced untreated 0.74,0.92
same,neurite process,[1]; induced untreated 2.07,2.34
same,neurite length,[1]; induced untreated 30.6 μm,40.7 μm
same,IC50 at 6 days,[2],16 µM
same,EC50,[3],13.2 µM
same,IC50 at 24 h,[4],77 µM
